Laboratory results published in patent publication US4822796A, “1-((Phenothiazin-10-yl)alkyl)-alpha-phenyl-4-piperidinemethanols and pharmaceutical use” (priority 1987, dated 1989).

What was measured:
[1] = modified phenyl-p-quinone writhing assay in mice (analgesia); format: in vivo, mice (male, Charles River, CD-1)
Experimental: The procedure employed to determine analgesic utility is a modification of the phenyl-p-quinone writhing assay in mice, a standard assay for analgesia [Proc. Soc. Exptl. Bio. Med., 95 729 (1957)]. In the modified procedure phenyl-p-benzoquinone (Eastman, 12.5 mg) is dissolved in 5 ml of 95% ethanol and the solution is diluted to a total volume of 100 ml with distilled water. The solution is administered to the subject mice […] at a dose of 10 ml per kg of body weight. A characteristic "writh", an inward rotation of one or more feet with twisting and turning of the trunk, drawing in of the abdominal wall, lordosis and arching of the back, is produced.
A total of 28 male mice (Charles River, CD-1), weighing 18 to 30 grams, are employed for a time response. The subject animals receive food and water ad libitum. Test compounds are dissolved in distilled water, or suspended in distilled water containing one drop of a suitable surfactant, such as Tween-80.
Four groups of five animals (20 animals) are given the test compound subcutaneously at 15, 30, 45 and 60 minutes prior to administration of the phenyl-p-quinone. Four control groups of 2 animals (8 animals) receive an equal volume of the vehicle. […] The number of writhes for each animal is recorded. […]

[2] = climbing mice assay (antipsychotic activity; inhibition of apomorphine induced climbing); format: in vivo, mice (CK-1 male); conditions: Mus musculus, ip, 30 minutes prior to apomorphine 1.5 mg/kg s.c., read-out: Anti-Psychotic Activity (ED50), 50% inhibition of apomorphine induced climbing
Source text: The subject CK-1 male mice (23-27 grams) are group-housed under standard laboratory conditions. The mice are individually placed in wire mesh stick cages (4"×4" by 10") and are allowed one hour for adaptation and exploration of the new environment.
Mice consistently climbing before the injection of apomorphine are discarded.
With full-developed apomorphine climbing, the animals are hanging onto the cage walls, rather motionless, over longer periods of time. By contrast, climbs due to mere motor stimulation usually last only a few seconds.

Structure (SMILES) | Analgesic Activity (% Inhibition of Writhing) ([1]; at 1.3 mg/kg sc, standard) | ED50 [2] | Analgesic Activity (% Inhibition of Writhing) ([1]; at 20 mg/kg, subcutaneous (route per method))
CC(C)=CCN1CCC2(C)c3cc(O)ccc3CC1C2C (stereo not shown) [Pentazocine] | 50% |  | 
CSc1ccc2c(c1)N(CCC1CCCCN1C)c1ccccc1S2 (stereo not shown) [Thioridazine] |  | 4.1 mg/kg | 
CSc1ccc2c(c1)N(CCCN1CCC(C(O)c3ccc(F)cc3)CC1)c1ccccc1S2 (stereo not drawn) [α-(4-Fluorophenyl)-1-[3-(2-methylthiophenothiazin-10-yl)propyl]-4-piperidinemethanol] |  | 8.6 mg/kg | 43%
